# Reference: ChEMBL document CHEMBL4196010, “New hydrazides derivatives of isoniazid against Mycobacterium tuberculosis: Higher potency and lower hepatocytotoxicity” (Eur J Med Chem, 2018)
# Assays:
# [1] = tested on: Mycobacterium tuberculosis; assay: Antitubercular activity against Mycobacterium tuberculosis H37Rv ATCC 27294 after 5 days by microplate alamar blue assay; type: functional; conditions: H37Rv ATCC 27294, 120 h
# [2] = tested on: Salmonella typhimurium; assay: Genotoxicity in Salmonella typhimurium TA98 assessed as increase in revertant colonies at 0.5 uM preincubated for 20 mins followed by addition of top agar and minimal agar and measured after 72 hrs in presence of S9 metabolic activation system by Ames test relative to control; type: toxicity, organism-based; conditions: salmonella enterica subsp. enterica serovar typhimurium
# [3] = tested on: Mycobacterium tuberculosis; assay: Potency index, ratio of ethambutol MIC to compound MIC for antitubercular activity against Mycobacterium tuberculosis H37Rv ATCC 27294; type: functional
# [4] = tested on: Mycobacterium tuberculosis; assay: Potency index, ratio of pyrazinamide MIC to compound MIC for antitubercular activity against Mycobacterium tuberculosis H37Rv ATCC 27294; type: functional
# [5] = tested on: J774.A1; assay: Cytotoxicity against mouse J774A.1 cells assessed as decrease in cell viability at 1 nM after 20 hrs by resazurin dye-based fluorimetric method; conditions: j774.a1, 20 h, 0.001 µM
# [6] = tested on: J774.A1; assay: Cytotoxicity against mouse J774A.1 cells assessed as decrease in cell viability at 10 nM after 20 hrs by resazurin dye-based fluorimetric method; conditions: j774.a1, 20 h, 0.01 µM
# [7] = tested on: J774.A1; assay: Cytotoxicity against mouse J774A.1 cells assessed as decrease in cell viability at 100 nM after 20 hrs by resazurin dye-based fluorimetric method; conditions: j774.a1, 20 h, 0.1 µM
# [8] = tested on: J774.A1; assay: Cytotoxicity against mouse J774A.1 cells assessed as decrease in cell viability at 1 uM after 20 hrs by resazurin dye-based fluorimetric method; conditions: j774.a1, 20 h
# [9] = tested on: J774.A1; assay: Cytotoxicity against mouse J774A.1 cells assessed as decrease in cell viability at 10 uM after 20 hrs by resazurin dye-based fluorimetric method; conditions: j774.a1, 20 h
# [10] = tested on: J774.A1; assay: Cytotoxicity against mouse J774A.1 cells assessed as decrease in cell viability at 100 uM after 20 hrs by resazurin dye-based fluorimetric method; conditions: j774.a1, 20 h
# [11] = Cytotoxicity against human HepG2 cells after 3 hrs by WST-1 assay; type: cell-based; conditions: read-out: LC50
# [12] = Cytotoxicity against human HepG2 cells after 24 hrs by WST-1 assay; type: cell-based; conditions: read-out: LC50
# [13] = Selectivity index, ratio of LC50 for human HepG2 cells to MIC for Mycobacterium tuberculosis H37Rv ATCC 27294; type: toxicity; conditions: read-out: Selectivity Index
# [14] = tested on: Salmonella typhimurium; assay: Genotoxicity in Salmonella typhimurium TA98 assessed as increase in revertant colonies at 0.5 uM preincubated for 20 mins followed by addition of top agar and minimal agar and measured after 72 hrs in absence of S9 metabolic activation system by Ames test relative to control; type: toxicity, organism-based; conditions: salmonella enterica subsp. enterica serovar typhimurium
# [15] = tested on: Salmonella typhimurium; assay: Genotoxicity in Salmonella typhimurium TA98 assessed as increase in revertant colonies at 5 uM preincubated for 20 mins followed by addition of top agar and minimal agar and measured after 72 hrs in absence of S9 metabolic activation system by Ames test relative to control; type: toxicity, organism-based; conditions: salmonella enterica subsp. enterica serovar typhimurium
# [16] = tested on: Salmonella typhimurium; assay: Genotoxicity in Salmonella typhimurium TA98 assessed as increase in revertant colonies at 50 uM preincubated for 20 mins followed by addition of top agar and minimal agar and measured after 72 hrs in absence of S9 metabolic activation system by Ames test relative to control; type: toxicity, organism-based; conditions: salmonella enterica subsp. enterica serovar typhimurium
# [17] = tested on: Salmonella typhimurium; assay: Genotoxicity in Salmonella typhimurium TA98 assessed as increase in revertant colonies at 500 uM preincubated for 20 mins followed by addition of top agar and minimal agar and measured after 72 hrs in absence of S9 metabolic activation system by Ames test relative to control; type: toxicity, organism-based; conditions: salmonella enterica subsp. enterica serovar typhimurium
# [18] = tested on: Salmonella typhimurium; assay: Genotoxicity in Salmonella typhimurium TA98 assessed as increase in revertant colonies at 5000 uM preincubated for 20 mins followed by addition of top agar and minimal agar and measured after 72 hrs in absence of S9 metabolic activation system by Ames test relative to control; type: toxicity, organism-based; conditions: salmonella enterica subsp. enterica serovar typhimurium
# [19] = tested on: Salmonella typhimurium; assay: Genotoxicity in Salmonella typhimurium TA100 assessed as increase in revertant colonies at 0.5 uM preincubated for 20 mins followed by addition of top agar and minimal agar and measured after 72 hrs in absence of S9 metabolic activation system by Ames test relative to control; type: toxicity, organism-based; conditions: salmonella enterica subsp. enterica serovar typhimurium
# [20] = tested on: Salmonella typhimurium; assay: Genotoxicity in Salmonella typhimurium TA100 assessed as increase in revertant colonies at 5 uM preincubated for 20 mins followed by addition of top agar and minimal agar and measured after 72 hrs in absence of S9 metabolic activation system by Ames test relative to control; type: toxicity, organism-based; conditions: salmonella enterica subsp. enterica serovar typhimurium
# [21] = tested on: Salmonella typhimurium; assay: Genotoxicity in Salmonella typhimurium TA100 assessed as increase in revertant colonies at 50 uM preincubated for 20 mins followed by addition of top agar and minimal agar and measured after 72 hrs in absence of S9 metabolic activation system by Ames test relative to control; type: toxicity, organism-based; conditions: salmonella enterica subsp. enterica serovar typhimurium
# [22] = tested on: Salmonella typhimurium; assay: Genotoxicity in Salmonella typhimurium TA100 assessed as increase in revertant colonies at 500 uM preincubated for 20 mins followed by addition of top agar and minimal agar and measured after 72 hrs in absence of S9 metabolic activation system by Ames test relative to control; type: toxicity, organism-based; conditions: salmonella enterica subsp. enterica serovar typhimurium
# [23] = tested on: Salmonella typhimurium; assay: Genotoxicity in Salmonella typhimurium TA100 assessed as increase in revertant colonies at 5000 uM preincubated for 20 mins followed by addition of top agar and minimal agar and measured after 72 hrs in absence of S9 metabolic activation system by Ames test relative to control; type: toxicity, organism-based; conditions: salmonella enterica subsp. enterica serovar typhimurium
# [24] = tested on: Salmonella typhimurium; assay: Genotoxicity in Salmonella typhimurium TA98 assessed as increase in revertant colonies at 5 uM preincubated for 20 mins followed by addition of top agar and minimal agar and measured after 72 hrs in presence of S9 metabolic activation system by Ames test relative to control; type: toxicity, organism-based; conditions: salmonella enterica subsp. enterica serovar typhimurium
# [25] = tested on: Salmonella typhimurium; assay: Genotoxicity in Salmonella typhimurium TA98 assessed as increase in revertant colonies at 50 uM preincubated for 20 mins followed by addition of top agar and minimal agar and measured after 72 hrs in presence of S9 metabolic activation system by Ames test relative to control; type: toxicity, organism-based; conditions: salmonella enterica subsp. enterica serovar typhimurium
# [26] = tested on: Salmonella typhimurium; assay: Genotoxicity in Salmonella typhimurium TA98 assessed as increase in revertant colonies at 500 uM preincubated for 20 mins followed by addition of top agar and minimal agar and measured after 72 hrs in presence of S9 metabolic activation system by Ames test relative to control; type: toxicity, organism-based; conditions: salmonella enterica subsp. enterica serovar typhimurium
# [27] = tested on: Salmonella typhimurium; assay: Genotoxicity in Salmonella typhimurium TA98 assessed as increase in revertant colonies at 5000 uM preincubated for 20 mins followed by addition of top agar and minimal agar and measured after 72 hrs in presence of S9 metabolic activation system by Ames test relative to control; type: toxicity, organism-based; conditions: salmonella enterica subsp. enterica serovar typhimurium
# [28] = tested on: Salmonella typhimurium; assay: Genotoxicity in Salmonella typhimurium TA100 assessed as increase in revertant colonies at 0.5 uM preincubated for 20 mins followed by addition of top agar and minimal agar and measured after 72 hrs in presence of S9 metabolic activation system by Ames test relative to control; type: toxicity, organism-based; conditions: salmonella enterica subsp. enterica serovar typhimurium
# [29] = tested on: Salmonella typhimurium; assay: Genotoxicity in Salmonella typhimurium TA100 assessed as increase in revertant colonies at 5 uM preincubated for 20 mins followed by addition of top agar and minimal agar and measured after 72 hrs in presence of S9 metabolic activation system by Ames test relative to control; type: toxicity, organism-based; conditions: salmonella enterica subsp. enterica serovar typhimurium
# [30] = tested on: Salmonella typhimurium; assay: Genotoxicity in Salmonella typhimurium TA100 assessed as increase in revertant colonies at 50 uM preincubated for 20 mins followed by addition of top agar and minimal agar and measured after 72 hrs in presence of S9 metabolic activation system by Ames test relative to control; type: toxicity, organism-based; conditions: salmonella enterica subsp. enterica serovar typhimurium
# [31] = tested on: Salmonella typhimurium; assay: Genotoxicity in Salmonella typhimurium TA100 assessed as increase in revertant colonies at 500 uM preincubated for 20 mins followed by addition of top agar and minimal agar and measured after 72 hrs in presence of S9 metabolic activation system by Ames test relative to control; type: toxicity, organism-based; conditions: salmonella enterica subsp. enterica serovar typhimurium
# [32] = tested on: Salmonella typhimurium; assay: Genotoxicity in Salmonella typhimurium TA100 assessed as increase in revertant colonies at 5000 uM preincubated for 20 mins followed by addition of top agar and minimal agar and measured after 72 hrs in presence of S9 metabolic activation system by Ames test relative to control; type: toxicity, organism-based; conditions: salmonella enterica subsp. enterica serovar typhimurium
compound,measurement,setting,value
CC(=O)NNC(=O)c1ccncc1,MIC,[1],> 559 µM
CC(=O)Nc1ccc(Cl)cc1C(F)(F)C(=O)NNC(=O)c1ccncc1,MIC,[1],16.4 µM
CC(=O)Nc1ccc(C)cc1C(F)(F)C(=O)NN,MIC,[1],> 412 µM
CC(=O)Nc1ccc(C)cc1C(F)(F)C(=O)NNc1ccccc1,MIC,[1],> 300 µM
CC(=O)Nc1ccccc1C(=O)C(=O)NNC(=O)c1ccncc1,fold change (FC),[2],1.1
same,MIC,[1],0.47 µM
same,Ratio,[3],30
same,Ratio,[4],1800
same,Activity,[5],99.6%
same,Activity,[6],98.7%
same,Activity,[7],97.7%
same,Activity,[8],99.5%
same,Activity,[9],97.1%
same,Activity,[10],93.3%
same,CC50 at 3 h,[11],> 200 µM
same,CC50 at 24 h,[12],31.5 µM
same,selectivity ratio,[13],67
same,fold change (FC),[14],1
same,fold change (FC),[15],1.1
same,fold change (FC),[16],1.2
same,fold change (FC),[17],1.3
same,fold change (FC),[18],1.3
same,fold change (FC),[19],1
same,fold change (FC),[20],1.3
same,fold change (FC),[21],1.3
same,fold change (FC),[22],1.3
same,fold change (FC),[23],1.4
same,fold change (FC),[24],1.1
same,fold change (FC),[25],1.6
same,fold change (FC),[26],2
same,fold change (FC),[27],2.5
same,fold change (FC),[28],1.1
same,fold change (FC),[29],1.1
same,fold change (FC),[30],1.2
same,fold change (FC),[31],1.2
same,fold change (FC),[32],1.3
CC(=O)Nc1ccccc1C(F)(F)C(=O)NNC(=O)c1ccncc1,MIC,[1],3.59 µM
CC(=O)Nc1ccc(F)cc1C(F)(F)C(=O)NNC(=O)c1ccncc1,MIC,[1],17.1 µM
CC(=O)Nc1ccccc1C(F)(F)C(=O)NNC(=N)N,MIC,[1],> 351 µM
O=C(CCl)Nc1ccccc1C(=O)C(=O)NNC(=O)c1ccncc1,MIC,[1],0.43 µM
same,Ratio,[3],30
same,Ratio,[4],1800
same,Activity,[5],99%
same,Activity,[6],98.5%
same,Activity,[7],97.9%
same,Activity,[8],96.5%
same,Activity,[9],98.8%
same,Activity,[10],63.3%
same,CC50 at 3 h,[11],> 200 µM
same,CC50 at 24 h,[12],110 µM
same,selectivity ratio,[13],256
CC(=O)Nc1ccccc1C(F)(F)C(=O)NNc1ccccn1,MIC,[1],> 312 µM
O=C(NNC(=O)c1ccncc1)C(=O)c1ccccc1NC(=O)c1ccccc1,MIC,[1],8.04 µM
same,Activity,[5],100%
same,Activity,[6],99.4%
same,Activity,[7],99.8%
same,Activity,[8],98.2%
same,Activity,[9],98%
same,Activity,[10],86.5%
same,CC50 at 3 h,[11],> 200 µM
same,CC50 at 24 h,[12],> 200 µM
same,selectivity ratio,[13],> 25
